According to paper PMC12677599 (Advanced Science, 2025):
Where two headings read alike, the source gives them in different places. Where a SMILES comes first, the peptide text is derived from it. [ ]: non-standard residue; d: D form. The star is where a group is joined. PEG4 = NCCOCCOCCOCCOCCC(=O)O; Piperidide = C1CCN(*)CC1

What was measured:
[1] = tested on: HMEC-1 normal cell line; type: cell-based; conditions: 24 h
Experimental: (§1) MTT assay was conducted as previously described.^[ [44] ^] Tumor cell lines (NCI‐H460, NCI‐H838, HT‐1080, MCF‐7, PC‐3, U‐251‐MG, and U‐87 MG) were seeded in 96‐well plates at a density of 8000 cells per well in a volume of 100 µL and cultured for 24 h. Normal cell lines (HaCaT, HMEC‐1, MRC‐5, and HEK‐293) were seeded in 96‐well plates at a density of 10 000 cells per well in a volume of 100 µL and cultured for 48 h. After that, only tumor cell lines were starved with 100 µL of SFM for a further 4–6 h. Subsequently, cells were treated with 100 µL of compound solutions with different concentrations for 24 h. Cells treated with SFM and 0.5% DMSO in SFM served as blank control and growth control, respectively. Ten µL of MTT solution (5 mg mL^−1) was added to each well, followed by an additional incubation period of 2 h for tumor cells and 4 h for normal cells. Finally, the solvent in each well was swapped with 100 µL of DMSO to dissolve the formazan crystals. The absorbance was measured by the plate reader at 570 nm.
(§2) The cell viability was calculated (1) Cellviability%=ODSamplegroup−ODBlank/ODGrowthgroup−ODBlank×100%

[2] = tested on: HaCaT normal cell line; type: cell-based; conditions: 24 h
Experimental: as §1, §2

[3] = tested on: MRC-5 normal cell line; type: cell-based; conditions: 24 h
Experimental: as §1, §2

[4] = tested on: H460 cell line; experiment: cells; type: cell-based
Experimental: as §1, §2

[5] = tested on: HEK-293 normal cell line; experiment: cells; type: cell-based
Experimental: as §1, §2

[6] = tested on: erythrocytes; type: cell-based; conditions: red cells of horse, 2 h
Experimental: Defibrinated horse blood (1 mL) was washed 3 times with 0.9% NaCl solution to remove plasma and then resuspended in 20 mL of 0.9% NaCl solution to obtain a red blood cell (RBC) suspension. Aliquots of the RBC suspension (100 µL) were incubated with 100 µL of compound solutions at concentrations ranging from 100 to 1.5625 µM (twofold serial dilution) for 2 h at 37 °C. RBCs treated with 0.9% NaCl solution and 1% Triton X‐100 solution served as blank and positive controls, respectively. Subsequently, the samples were centrifuged at 900 × g for 10 min, and the absorbance of the supernatant was measured at 570 nm.
The hemolysis ratio was calculated as (2) Hemolysis%=ODSamplegroup−ODBlank/ODPositivegroup−ODBlank×100%

[7] = tested on: H460 cell line; type: cell-based; conditions: 24 h
Experimental: as §1
The antimicrobial stability evaluation was determined in the presence of physiological concentrations of serum. Twenty five µL of compound solutions with the concentration of 3 mM and 25 µL of human serum were mixed. The mixture was incubated for 0, 2, 4, 6, 12, 24 h at 37 °C and then incubated for 15 min at 60 °C to inactivate the enzymes. […]

[8] = tested on: 5-Fluorouracil-resistance H460 cell line; type: cell-based; conditions: 24 h
Experimental: as §1
(§3) Wild type H460 cells were cultured in a T‐75 flask and exposed to 30 µM of cisplatin. Cells were passed when the confluency reached 90%. The IC50 value of cisplatin on this cell line was evaluated every two passages. After the IC50 value was higher than 500 µM, the cultured medium was changed to normal CGM, and the cell line was cultured for another three passages. The IC50 value was evaluated again to make sure the resistance was stable. The other three resistance cell lines establishment process was similar. […] Parental NCI‐H460 cells were exposed to 10 µM 5‐fluorouracil, 2.5 µM paclitaxel, or 2.5 µM etoposide to generate 5‐fluorouracil‐resistant, paclitaxel‐resistant, and etoposide‐resistant cell lines, respectively.

[9] = tested on: Cisplatin-resistance H460 cell line; type: cell-based; conditions: 24 h
Experimental: as §1, §3

[10] = tested on: Etoposide-resistance (DR-EPT) H460 cell line; type: cell-based; conditions: 24 h
Experimental: as §1, §3

[11] = tested on: Paclitaxel-resistance (DR-PTX) H460 cell line; type: cell-based; conditions: 24 h
Experimental: as §1, §3

[12] = Compound remaining evaluation in human serum; type: in vitro ADME; conditions: 50% human serum (50 µL 3 mM compound + 50 µL serum), 37 °C, 24 h, ethanol precipitation, analytical HPLC 214 nm peak area vs 0 h, n = 2; read-out: remaining ratio in human serum after 24 h
Experimental: Compound solutions (50 µL, 3 mM) were mixed with human serum (50 µL) and incubated for 0, 2, 4, 6, 12, and 24 h at 37 °C. Ethanol (250 µL) was added to precipitate serum proteins, and the samples were centrifuged at 14 000 × g for 20 min at 4 °C. Subsequently, 150 µL of supernatant of each sample was analyzed with analytical HPLC and ESI‐MS/MS. HPLC condition: gradient: 100% solution A to 0% solution A from 0 to 60 min; flow rate: 1 mL min^−1; detector wavelength: 214 nm. Each sample had two replicates.
The compound remaining ratio was calculated as (7) Compoundremaining%=CompoundPeakAreanotat0h/CompoundPeakAreaat0h×100%

[13] = tested on: Galleria mellonella larvae; experiment: In vivo safety evaluation in G. mellonella larvae
Experimental: G. mellonella larvae (Livefoods Direct Ltd., Yorkshire, UK) were used to assess the in vivo safety of peptides. Experiments were conducted on larvae (250 ± 25 mg) incubated at 37 °C. Ten µL of compound 270 solutions with the final concentrations of 50, 80, and 120 µM were injected into the hemolymph via the second pair of prolegs (counting from the head). Control groups were injected with an equal volume of PBS. Larval survival and body weight were monitored every 1 day for a total of 5 days.

[14] = tested on: H838 cell line; type: cell-based; conditions: 24 h
Experimental: as §1, §2

[15] = tested on: HT-1080 cell line; type: cell-based; conditions: 24 h
Experimental: as §1, §2

[16] = tested on: matrix-metalloproteinase (MMP); experiment: MMP cleavage detection in H460 condition medium; type: in vitro ADME; conditions: 50 µM in condition or control medium, HPLC and MS, n = 2
Experimental: NCI‐H460 cells were seeded in 48‐well plates at a density of 24 000 cells per well in a volume of 300 µL and cultured for 24 h. Afterward, 300 µL of SFM was added to each well followed by a 10 h incubation. Next, the supernatant of each well was transferred to 1.5 mL tubes. The supernatant of control group was incubated at 60 °C for 30 min (control medium) while the supernatant of dosing group (condition medium) had no incubation. […] Last, 150 µL of samples were analyzed by analytical HPLC and ESI‐MS. HPLC condition: gradient: 100% solution A from 0 to 5 min and 100% solution A to 0% solution A from 5 to 65 min; flow rate: 1 mL min^−1; detector wavelength: 214 nm. Each sample had two replicates.

[17] = tested on: H460 cells; experiment: LDH release assay; type: cell-based; conditions: H460, 4 h dosing at each IC50 value; n = 3
Experimental: The seeding and starvation process were the same as cell antiproliferation evaluation. Cells were treated with 100 µL of compound solutions with different concentrations (compound 266 was tested at 12 µM) for 4 or 24 h. Cells treated with 0.5% DMSO in SFM and 1% Triton X‐100 in SFM served as blank control and positive control, respectively. Afterward, LDH working solution was prepared according to the instructions of the Cytotoxicity Detection Kit (LDH). Fifty µL of supernatant was transferred to another 96‐well plate, and 50 µL of LDH working solution was added to each well, followed by a 40 min incubation at room temperature. Subsequently, the absorbance of each well was measured by the plate reader at 490 nm.
The LDH release ratio was calculated as (3) LDHrelease%=ODSamplegroup−ODBlank/ODPositivegroup−ODBlank×100%

[18] = tested on: H460 cells; experiment: Killing rate evaluation, calcein-AM/PI double staining; type: cell-based; conditions: IC50 concentration, n = 2
Experimental: Calcien‐AM/PI double staining assay was used. NCI‐H460 cells were seeded in a chamber‐slide (154526, Thermo Fisher Scientific) at a density of 100 000 cells per unit in a volume of 500 µL and cultured for 24 h. After starvation with 300 µL of SFM for 4 h, cells were treated with 500 µL of compound solutions with different concentrations for 2, 4, 6, 8, 10 h, respectively. Cells treated with 0.5% DMSO in SFM served as control group. Subsequently, cells in each unit were washed with EBSS once, and incubated with 500 µL of 2 µg mL^−1 calcien‐AM solution at 37 °C for 20 min. Afterward, cells were stained with 500 µL of 2 µg mL^−1 PI solution at room temperature for 15 min and washed with EBSS 3 times. Finally, 300 µL of EBSS was added into each unit. Live (green fluorescence from calcein‐AM) and dead (red fluorescence from PI) cells were then observed and imaged under a fluorescence microscope (LEICA Dmi8). This evaluation was conducted with two biological replicates. Quantitative analyses of living cells were processed with ImageJ software (threshold set: 8‐255).

## CC[C@H](C)[C@H](NC(=O)[C@H](CCCCN)NC(=O)[C@@H]1CCCN1C(=O)[C@H](CC(C)C)NC(=O)[C@@H](NC(=O)[C@H](CO)NC(=O)[C@H](CCC(=O)N1CCCCC1)NC(=O)[C@H](CC(C)C)NC(=O)[C@H](CC(=O)O)NC(=O)[C@H](CC(=O)O)NC(=O)[C@H](Cc1ccccc1)NC(=O)[C@@H](NC(=O)[C@H](CCCCN)NC(=O)[C@@H]1CCCN1C(=O)[C@H](Cc1ccccc1)NC(=O)[C@H](Cc1ccccc1)NC(=O)[C@H](CCCCN)NC(=O)[C@H](C)N)[C@@H](C)CC)[C@@H](C)CC)C(=O)N[C@@H](CC(C)C)C(=O)NCC(=O)N1CCC[C@H]1C(=O)N[C@@H](CC(C)C)C(=O)NCC(=O)N[C@@H](CC(C)C)C(=O)N[C@@H](C)C(=O)NCC(=O)NCCOCCOCCOCCOCCC(=O)NCCOCCOCCOCCOCCC(=O)NCCOCCOCCOCCOCCC(=O)NCCOCCOCCOCCOCCC(=O)NCCOCCOCCOCCOCCC(=O)NCCOCCOCCOCCOCCC(N)=O [compound 270] (H-AKFFPKIFDDLE(Piperidide)SILPKILGPLGLAG[PEG4][PEG4][PEG4][PEG4][PEG4][PEG4]-NH2)
[1]
  IC50: > 100 µM
[2]
  IC50: > 100 µM
[3]
  IC50: > 100 µM
[4]; 24 h
  IC95 value, H460: ≈ 55 µM
[5]; 24 h
  IC50: > 100 µM
[5]; 24 h, 100
  inhibition of HEK-293 cells at 100 µM: 40%
[6]
  HC10 (concentration causing 10% of erythrocytes lysis): >100 µM
[7]
  IC50: 53.6 ± 2.04 µM
[8]
  IC50: 56.44 ± 0.25 µM
[9]
  IC50: 54.7 ± 3.28 µM
[10]
  IC50: 28.1 ± 1.42 µM
[11]
  IC50: 35.3 ± 1.83 µM
[12]
  remaining at 24 h, 1.5 mM: ~100%
[13]; 10 µL injected into hemolymph, 50 µM, 37 °C, day 5
  larval survival after 5 days, 50 µM: 77.8%
[13]; 10 µL injected into hemolymph, 80 µM, 37 °C, day 5
  larval survival after 5 days, 80 µM: 88.9%
[13]; 10 µL injected into hemolymph, 120 µM, 37 °C, day 5
  larval survival after 5 days, 120 µM: 77.8%
[13]; 50, 80 or 120 µM, 5 days
  melanization of larvae: No melanization

## CC[C@H](C)[C@H](NC(=O)[C@H](CCCCN)NC(=O)[C@@H]1CCCN1C(=O)[C@H](CC(C)C)NC(=O)[C@@H](NC(=O)[C@H](CO)NC(=O)[C@H](CCC(=O)N1CCCCC1)NC(=O)[C@H](CC(C)C)NC(=O)[C@H](CC(=O)O)NC(=O)[C@H](CC(=O)O)NC(=O)[C@H](Cc1ccccc1)NC(=O)[C@@H](NC(=O)[C@H](CCCCN)NC(=O)[C@@H]1CCCN1C(=O)[C@H](Cc1ccccc1)NC(=O)[C@@H](N)Cc1ccccc1)[C@@H](C)CC)[C@@H](C)CC)C(=O)N[C@@H](CC(C)C)C(=O)NCC(=O)N1CCC[C@H]1C(=O)N[C@@H](CC(C)C)C(=O)NCC(=O)N[C@@H](CC(C)C)C(=O)N[C@@H](C)C(=O)NCC(=O)NCCOCCOCCOCCOCCC(=O)NCCOCCOCCOCCOCCC(=O)NCCOCCOCCOCCOCCC(=O)NCCOCCOCCOCCOCCC(N)=O [compound 209] (H-FFPKIFDDLE(Piperidide)SILPKILGPLGLAG[PEG4][PEG4][PEG4][PEG4]-NH2)
[14]
  IC50: 84.5 ± 5.91 µM
[1]
  IC50: > 100 µM
[15]
  IC50: 86.8 ± 49.1 µM
[2]
  IC50: > 100 µM
[3]
  IC50: > 100 µM
[4]; 24 h
  IC50: 53.4 µM
[5]; 24 h
  IC50: 98.6 µM
[8]
  IC50: 84.5 ± 4.55 µM
[9]
  IC50: 94.3 µM
[10]
  IC50: > 100 µM
[11]
  IC50: 97.8 µM
[16]
  MMP-cleaved product detection / integrity in H460 medium: remained intact

## COc1cc([C@@H]2c3cc4c(cc3[C@@H](O[C@@H]3O[C@@H]5CO[C@@H](C)O[C@H]5[C@H](O)[C@H]3O)[C@H]3COC(=O)[C@H]23)OCO4)cc(OC)c1O [Etoposide, etoposide, reference compound]
[4]; Homo sapiens, NCI-H460, Table S11, MTT, read-out: IC50 Value of chemotherapeutics, H460
  IC50: 169 ± 29.2 µM
[5]; Homo sapiens, HEK293, Table S11, MTT, read-out: IC50 Value of chemotherapeutics, HEK-293
  IC50: 115 ± 14.7 µM
[17]
  LDH release ratio: no positive results
[18]
  cells eliminated within 10 h: ≈ 10%
